Results: patent US6239145A, “Nitroxyl compounds and drugs and reagents containing the same as the active ingredient” (Daiitchi Radioisotope Laboratories, Ltd., priority 1997, dated 2001)

Assays:
[1] = Organ distribution in mice by X-band ESR; conditions: for Blood (% dose) / Brain (% dose): vena caudalis, 7.5 μmol (2.5 μmol for 3-carboxy-PROXYL acetoxymethyl ester)
Protocol: (§5) The test was performed using sixteen groups of three mice each (ddY, female) as experimental animals as described below. 7.5 μmol of the test samples (2.5 μmol for 3-carboxy-PROXYL acetoxymethyl ester) were administered to the vena caudalis of the mice under ether, and allowed to stand for 3, 10, and 30 minutes, respectively. The mice were then dehematized quickly and the brain was removed. The brain was homogenized with a phosphate buffer solution in an amount nine times that of the removed brain. The blood was diluted with a phosphate buffer solution in an amount nine times thereof. A potassium ferricyanide solution was added to part of the tissue thus treated so that the final concentration was 1 mM. The test samples which had become hydroxylamines by the active oxygen and the like in vivo were converted to nitroxide radicals (one electron oxidation) to prepare ESR samples.
(§6) The concentration of the test samples after one electron oxidation was measured by x-band ESR and determined as the concentration of the samples in vivo. The test sample solution in an amount equal to that administered to the mice was prepared. This solution was treated in the same way, beginning from the addition of the nine-fold phosphate buffer solution. The concentration of the test sample was measured by x-band ESR and was determined as the total dosage. 15 mm of each sample taken into a 100 μl capillary (length 116.5 mm) was put into a quartz cell to measure the ESR spectrum under the following conditions.
(§7) Measuring device: Electron spin resonance spectrometry "JES-RE1X" (manufactured by JEOL Ltd.)
Magnetic field: 331.5±5 mT
Time constant: 0.03 second
(§8) The ratio of the test samples in the brain and blood to the total dosage (% dose), the value obtained by dividing the % dose by the weight of the brain and blood (% dose/g), and the ratio of the % dose/g of the brain, which was the target organ, to the % dose/g of the blood were calculated from the ESR spectrum.

in vitro = in vitro ADME; conditions: carboxylesterase, 37° C., mean ± SD, n = 3, read-out: Hydrolysis Rate; for metabolised at 10 s: 10 sec., SD printed on next line: 0.43 (methyl ester), 11.9 (acetoxymethyl ester); for metabolised at 1 min: SD printed on next line: 0.34 (methyl ester), 3.4 (acetoxymethyl ester); for metabolised at 0.05 h: 3 min., 1.1 (acetoxymethyl ester); for metabolised at 0.05 h / metabolised at 5 min: SD: 0.49 (methyl ester); for metabolised at 5 min: 2.2 (acetoxymethyl ester); for metabolised at 10 min: SD printed on next line: 0.08 (methyl ester); for metabolised at 10 min / metabolised at 0.5 h: 0.0 (acetoxymethyl ester); for metabolised at 0.5 h: 30 min., SD printed on next line: 1.51 (methyl ester)
Protocol: (§1) Changes with time in the hydrolysis rate of 3-carboxy-PROXYL methyl ester and 3-carboxy-PROXYL acetoxymethyl ester by an esterase were examined.
(§2) 200 μl of a 10 mM test sample solution was mixed with 800 μl of 5 micro units of an esterase (carboxy esterase, carboxylic ester hydrolase; EC 3.1.1.1 manufactured by Sigma, catalogue No. E3128). The mixture was incubated at 37° C. for 10 seconds, 1 minute, 3 minutes, 5 minutes, 10 minutes, and 30 minutes, respectively. The mixture was then analyzed by HPLC to calculate the hydrolysis rate from the amount ratio of the unchanged product to 3-carboxy-PROXYL which is a hydrolysate thereof.
(§3) HPLC was performed using a UV-VIS detector (UV-8020), a dual pump (CCPS), a column (ODS-80Ts), and a TSK precolumn (BSA-ODS) all manufactured by Tosoh Corp.
(§4) Mobile phase: 20 mM phosphate buffer solution (pH 2.2)/methanol=60/40

[2] = tested on: esterase (carboxy esterase, carboxylic ester hydrolase; EC 3.1.1.1); experiment: in vitro; assay type: in vitro ADME
Protocol: as §1, §2, §3, §4

in vivo = conditions: mouse, iv
Protocol: as §5, §6, §7
Magnetic field: 331.5±5 mT
Time constant: 0.03 second
as §8

mouse brain = assay type: in vivo; conditions: 2.5 μmol, vena caudalis
Protocol: . An L band ESR-CT image of the head axial transverse section was measured under the following conditions.
Measuring device: Electron spin resonance spectrometry
"JES-RE31" (manufactured by JEOL Ltd.)
Magnetic field gradient: 0.45 mT/cm
Projection: 18 (every 10°)
Magnetic field modulation: 100 kHz
Time constant: 0.003 second
Measurement temperature: room temperature

Compound	Blood (% dose) ([1]; 3 min.)	Brain (% dose) ([1]; 3 min.)	Blood (% dose) ([1]; 10 min.)	Brain (% dose) ([1]; 10 min.)	Blood (% dose) ([1]; 30 min.)	Brain (% dose) ([1]; 30 min.)	brain to blood ratio (ratio of % dose/g of the brain to % dose/g of the blood) ([1]; after 10 minutes)	metabolised at 10 s (in vitro)	metabolised at 1 min (in vitro)	metabolised at 0.05 h (in vitro)	metabolised at 5 min (in vitro)	metabolised at 10 min (in vitro)	metabolised at 0.5 h (in vitro)	Speed of hydrolysis by esterase compared with methyl ester, in words [2]	Hydrolysis by esterase, in words ([2]; after 10 seconds)	Kp at 10 min (in vivo)	Kp at 0.5 h (in vivo)	L band ESR-CT: concentration inside the brain (mouse brain)	L band ESR-CT: concentration outside the brain (mouse brain)
2-ethyl-2,5,5-trimethyloxazolidinyloxy	4.52 % dose	1.63 % dose	3.69 % dose	1.64 % dose	0.81 % dose	0.52 % dose	0.84-1.78	–	–	–	–	–	–	–	–	–	–	–	–
CC(=O)OCOC(=O)C1CC(C)(C)N([O])C1(C)C (centres unmarked) [3-carboxy-PROXYL acetoxymethyl ester, acetoxymethyl-2,2,5,5-tetramethylpyrrolidinyloxy-3-carboxylate]	6.28 % dose	2.26 % dose	4.41 % dose	2.77 % dose	4.21 % dose	1.98 % dose	–	30.1%	70.8%	93.9%	96.7%	100%	100%	hydrolyzed by an esterase in a shorter period of time than 3-carboxy-PROXYL methyl ester	slightly hydrolyzed	3.14	2.88	still more highly concentrated inside the brain	decreased accumulation outside the brain
CCOC(=O)C1CC(C)(C)N([O])C1(C)C (centres unmarked) [3-carboxy-PROXYL ethyl ester]	3.46 % dose	0.79 % dose	2.92 % dose	0.74 % dose	3.38 % dose	0.12 % dose	–	–	–	–	–	–	–	–	–	0.84 to 1.78	–	–	–
COC(=O)C1CC(C)(C)N([O])C1(C)C (centres unmarked) [3-carboxy-PROXYL methyl ester]	4.62 % dose	1.31 % dose	2.68 % dose	0.67 % dose	2.18 % dose	0.21 % dose	–	0.05%	0.4%	0.8%	1.35%	2.54%	8.25%	–	–	0.84 to 1.78	–	highly concentrated inside the brain	concentrated outside the brain
